According to patent US20160199351A1, “COMPOSITIONS AND METHODS FOR INHIBITING FUNGAL INFECTIONS” (priority 2015, published 2016):
Values after ≈ are worked out from the molar mass of the structure shown. Where two headings read alike, the source gives them in different places.

Assays:
Rhizopus oryzae = experiment: MIC (Table 5); conditions: Rhizopus arrhizus
Apophysomyces = experiment: MIC, CLSI M38-A2 broth dilution (Table 1); assay type: cell-based
Blastomyces dermatitidis = experiment: MIC, macrodilution method (Table 1); assay type: cell-based; conditions: 96 hours
Histoplasma capsulatum [1] = assay type: cell-based; conditions: 24-hour treatment
Scedosporium sp. = experiment: MIC (Table 5)
Pneumocystis carinii = experiment: In vitro ATP content of Pneumocystis (luciferin-luciferase assay); conditions: for IC50: Pneumocystis carinii, read-out: IC50 (reduction in ATP)
Aspergillus fumigatus = experiment: Recovery of Aspergillus fumigatus mycelia growth after removal of antifungal drugs (MTT); assay type: cell-based; conditions: treated 12 hours, drug removed, 24 hours more
Histoplasma capsulatum [2] = experiment: organism not typed; assay type: cell-based
C. krusei = experiment: MIC against Candida species (Table 4); conditions: Pichia kudriavzevii; for MIC: read-out: MIC 100%
Coccidioides sp. = experiment: microbe, parasite or virus in culture; assay type: cell-based; conditions: Coccidioides

For `NCC(=O)Nc1ccc(-n2nc(C(F)(F)F)cc2-c2ccc3c(ccc4ccccc43)c2)cc1` [AR-12, 2-amino-N-(4-(5-(phenanthren-2-yl)-3-(trifluoromethyl)-1H-pyrazol-1-yl)phenyl)acetamide], the MIC50 (Rhizopus oryzae; 24 h, isolate R-1, 24 hrs) was 4 µg/mL (≈ 8.69 µM), the MIC50 (Rhizopus oryzae; 24 h, isolate R-2, 24 hrs) was 4 µg/mL (≈ 8.69 µM) and the MIC50 (Rhizopus oryzae; 24 h, isolate R-3, 24 hrs) was 4 µg/mL (≈ 8.69 µM). For the same compound, the MIC50 (Rhizopus oryzae; 24 h, isolate R-4, 24 hrs) was 4 µg/mL (≈ 8.69 µM), the MIC50 (Rhizopus oryzae; 24 h, isolate R-5, 24 hrs) was 2 µg/mL (≈ 4.34 µM) and the MIC50 (Rhizopus oryzae; 24 h, isolate R-6, 24 hrs) was 4 µg/mL (≈ 8.69 µM). For the same compound, the MIC (Rhizopus oryzae; 24 h, read-out: MIC 100%, isolate R-1, 24 hrs) was 4 µg/mL (≈ 8.69 µM), the MIC (Rhizopus oryzae; 24 h, read-out: MIC 100%, isolate R-2, 24 hrs) was 4 µg/mL (≈ 8.69 µM) and the MIC (Rhizopus oryzae; 24 h, read-out: MIC 100%, isolate R-3, 24 hrs) was 4 µg/mL (≈ 8.69 µM). For the same compound, the MIC (Rhizopus oryzae; 24 h, read-out: MIC 100%, isolate R-4, 24 hrs) was 4 µg/mL (≈ 8.69 µM), the MIC (Rhizopus oryzae; 24 h, read-out: MIC 100%, isolate R-5, 24 hrs) was 4 µg/mL (≈ 8.69 µM) and the MIC (Rhizopus oryzae; 24 h, read-out: MIC 100%, isolate R-6, 24 hrs) was 4 µg/mL (≈ 8.69 µM). For the same compound, the MIC50 (Rhizopus oryzae; isolate R-1, 48/72 hrs) was 4 µg/mL (≈ 8.69 µM), the MIC50 (Rhizopus oryzae; isolate R-2, 48/72 hrs) was 8 µg/mL (≈ 17.4 µM) and the MIC50 (Rhizopus oryzae; isolate R-3, 48/72 hrs) was 4 µg/mL (≈ 8.69 µM). It also gave an MIC50 (Rhizopus oryzae; isolate R-4, 48/72 hrs) of 4 µg/mL (≈ 8.69 µM), an MIC50 (Rhizopus oryzae; isolate R-5, 48/72 hrs) of 4 µg/mL (≈ 8.69 µM) and an MIC50 (Rhizopus oryzae; isolate R-6, 48/72 hrs) of 4 µg/mL (≈ 8.69 µM). For the same compound, the MIC (Rhizopus oryzae; read-out: MIC 100%, isolate R-1, 48/72 hrs) was 4 µg/mL (≈ 8.69 µM), the MIC (Rhizopus oryzae; read-out: MIC 100%, isolate R-2, 48/72 hrs) was 8 µg/mL (≈ 17.4 µM) and the MIC (Rhizopus oryzae; read-out: MIC 100%, isolate R-3, 48/72 hrs) was 4 µg/mL (≈ 8.69 µM). The MIC (Rhizopus oryzae; read-out: MIC 100%, isolate R-4, 48/72 hrs) was 4 µg/mL (≈ 8.69 µM), the MIC (Rhizopus oryzae; read-out: MIC 100%, isolate R-5, 48/72 hrs) was 4 µg/mL (≈ 8.69 µM) and the MIC (Rhizopus oryzae; read-out: MIC 100%, isolate R-6, 48/72 hrs) was 4 µg/mL (≈ 8.69 µM). For the same compound, the “MIC 50%” value (Apophysomyces; isolate A1, 24 hours) was 2 gg/m1, the “MIC 100%” value (Apophysomyces; isolate A1, 24 hours) was >16 gg/m1 and the “MIC 50%” value (Apophysomyces; isolate A2, 24 hours) was 2 gg/m1. The “MIC 100%” value (Apophysomyces; isolate A2, 24 hours) was >16 gg/m1, the “MIC 50%” value (Blastomyces dermatitidis; isolate BD1, macrodilution) was 2 gg/m1 and the “MIC 100%” value (Blastomyces dermatitidis; isolate BD1, macrodilution) was 4 gg/m1. The “MIC 50%” value (Blastomyces dermatitidis; isolate BD2, macrodilution) was 1 gg/m1, the “MIC 100%” value (Blastomyces dermatitidis; isolate BD2, macrodilution) was 2 gg/m1 and the “MIC 50%” value (Blastomyces dermatitidis; isolate BD3, macrodilution) was 1 gg/m1. For the same compound, the “MIC 100%” value (Blastomyces dermatitidis; isolate BD3, macrodilution) was 1 gg/m1, the “reduction of fungal viability” value (Histoplasma capsulatum [1]; then growth in absence of drug) was “about 1000 fold” and the “viability staining of yeasts” value (Histoplasma capsulatum [1]; ethidium bromide / fluorescein staining) was “loss of yeast viability”. It also gave an MIC50 (Scedosporium sp.; 24 h, isolate S-2, 24 hrs) of 2 µg/mL (≈ 4.34 µM), an MIC (Scedosporium sp.; 24 h, read-out: MIC 100%, isolate S-2, 24 hrs) of 2 µg/mL (≈ 4.34 µM) and an MIC50 (Scedosporium sp.; isolate S-1, 48/72 hrs) of 2 µg/mL (≈ 4.34 µM). The MIC50 (Scedosporium sp.; isolate S-2, 48/72 hrs) was 4 µg/mL (≈ 8.69 µM), the MIC (Scedosporium sp.; read-out: MIC 100%, isolate S-1, 48/72 hrs) was 4 µg/mL (≈ 8.69 µM) and the MIC (Scedosporium sp.; read-out: MIC 100%, isolate S-2, 48/72 hrs) was 4 µg/mL (≈ 8.69 µM). The IC50 (Pneumocystis carinii; 24 h) was 41.3 µg/mL (≈ 89.7 µM), the IC50 (Pneumocystis carinii; 48 h) was 18.3 µg/mL (≈ 39.8 µM) and the IC50 (Pneumocystis carinii; 72 h) was 4.82 µg/mL (≈ 10.5 µM). The “Pm % Reduction in ATP/Vehicle Control” value (Pneumocystis carinii; Table 2, 1 μg/ml, 24 hours) was 0%, the “Pm % Reduction in ATP/Vehicle Control” value (Pneumocystis carinii; Table 2, 1 μg/ml, 48 hours) was 1.76% and the “Pm % Reduction in ATP/Vehicle Control” value (Pneumocystis carinii; Table 2, 1 μg/ml, 72 hours) was 0.49%. For the same compound, the “Pm % Reduction in ATP/Vehicle Control” value (Pneumocystis carinii; Table 2, 10 μg/ml, 24 hours) was 0%, the “Pm % Reduction in ATP/Vehicle Control” value (Pneumocystis carinii; Table 2, 10 μg/ml, 48 hours) was 16.68% and the “Pm % Reduction in ATP/Vehicle Control” value (Pneumocystis carinii; Table 2, 10 μg/ml, 72 hours) was 59.81%. The “Pm % Reduction in ATP/Vehicle Control” value (Pneumocystis carinii; Table 2, 100 μg/ml, 24 hours) was 97.31%, the “Pm % Reduction in ATP/Vehicle Control” value (Pneumocystis carinii; Table 2, 100 μg/ml, 48 hours) was 97.2% and the “Pm % Reduction in ATP/Vehicle Control” value (Pneumocystis carinii; Table 2, 100 μg/ml, 72 hours) was 99.04%. The “recovery of mycelia growth after removal of drug” value (Aspergillus fumigatus) was “no viable Aspergillus fumigatus mycelia”, the MIC (Histoplasma capsulatum [2]; read-out: MIC, concentration resulting in 50% inhibition of yeast growth) was 5.4 µM (≈ 2.49 µg/mL) and the MIC (Histoplasma capsulatum [2]; read-out: MIC, concentration resulting in 90% inhibition of yeast growth) was 15.9 µM (≈ 7.32 µg/mL). The “concentration that effectively prevents growth” value (Histoplasma capsulatum [2]; stated for all three fungi) was 8 to 40 µM, the MIC50 (C. krusei; 24 h) was 2 µg/mL (≈ 4.34 µM) and the MIC (C. krusei; 24 h) was 4 µg/mL (≈ 8.69 µM). For the same compound, the MIC50 (C. krusei; 48 h) was 4 µg/mL (≈ 8.69 µM), the MIC (C. krusei; 48 h) was 4 µg/mL (≈ 8.69 µM) and the MIC50 (Coccidioides sp.) was 2 µg/mL (≈ 4.34 µM). For the same compound, the MIC (Coccidioides sp.; read-out: MIC 100%, isolate COCCI-1, 72/192 hrs) was 4 µg/mL (≈ 8.69 µM) and the MIC (Coccidioides sp.; read-out: MIC 100%, isolate COCCI-2, 72/192 hrs) was 8 µg/mL (≈ 17.4 µM).
